Consider 4 substances from patent US5861480A, “Antimicrobial proteins from aralia and impatiens” (Zeneca Limited, priority 1994, dated 1999).

Common to all, as to type: cell-based
In assay [1] the test system is F graminearum (Fusarium craminearum FR-12). To be noted: Medium A (1/2 PDB), 48 h.
Assay [2] has as its system Escherichia coli strain HB101. The assay is described as follows: Antibacterial activity assay (microspectrophotometry), E coli. To be noted: bacterial suspension in soft nutrient agarose, 24 hours at 28° C.
Assay [3] concerns Fusarium moniliforme FM-9. The assay is described as follows: Antifungal activity assay (microspectrophotometry), F moniliforme. To be noted: Medium A (1/2 PDB), 48 h.
In assay [4] the test system is Candida albicans KA-1. The assay is described as follows: Anti-yeast activity assay, C albicans.
Assay [5] concerns B maydis (Bipolaris mavdis HM-10). As to the kind of experiment: Antifungal activity assay (microspectrophotometry), B maydis. To be noted: Medium A (1/2 PDB), 48 h.
Assay [6] deals with A longipes (Alternaria lonaives CBS62083). As to the kind of experiment: Antifungal activity assay (microspectrophotometry), A longipes. To be noted: 48 h.
For assay [7], the system named is Septoria tritici (K1097D). The assay is described as follows: Antifungal activity assay (microspectrophotometry), S tritici. To be noted: 48 h.
Assay [8] has as its system Verticillium dahliae MUCL 19210. As to the kind of experiment: Antifungal activity assay (microspectrophotometry), V dahliae. To be noted: Medium A (1/2 PDB), 48 h.
The test system of assay [9] is Verticillium albo-atrum K0937. As to the kind of experiment: Antifungal activity assay (microspectrophotometry), V albo-atrum. To be noted: 48 h.
Assay [10] has as its system Bacillus megaterium ATCC 13632. As to the kind of experiment: Antibacterial activity assay (microspectrophotometry), B megaterium. To be noted: bacterial suspension in soft nutrient agarose, 24 hours at 28° C.
Assay [11] deals with Botrytis cinerea MUCL 30158. As to the kind of experiment: Antifungal activity assay (microspectrophotometry), B cinerea. To be noted: 48 h.
Assay [12] has as its system Cercospora beticola strain K897. As to the kind of experiment: Antifungal activity assay (microspectrophotometry), C beticola. To be noted: Medium A (1/2 PDB), 48 h.
Assay [13] has as its system Fusarium culmorum IMI 180420. The assay is described as follows: Antifungal activity assay (microspectrophotometry), F culmorum. To be noted: 48 h.
The subject of assay [14] is P digitatum (Penicillium dipitatum (K0879)). The assay is described as follows: Antifungal activity assay (microspectrophotometry), P digitatum. To be noted: 48 h.
The subject of assay [15] is C graminicola (Colletotrichum Qraminicola CG-17). The assay is described as follows: Antifungal activity assay (microspectrophotometry), C graminicola. To be noted: Medium A (1/2 PDB), 48 h.
Assay [16] deals with Stenocarpella maydis. As to the kind of experiment: Antifungal activity assay (microspectrophotometry), S maydis. To be noted: Medium A (1/2 PDB), 48 h.
The test system of assay [17] is C sphaerospermum (Cladosnorium sphaerospermum KO791). As to the kind of experiment: Antifungal activity assay (microspectrophotometry), C sphaerospermum. To be noted: 48 h.
In assay [18] the test system is Sphacelotheca reiliana HS. The assay is described as follows: Antifungal activity assay (microspectrophotometry), S reiliana. To be noted: Medium A (1/2 PDB), 48 h.
Assay [19] relates to Trichoderma viride K1127. As to the kind of experiment: Antifungal activity assay (microspectrophotometry), T viride. To be noted: 48 h.
The test system of assay [20] is Saccharomyces cerevisiae JRY188. The assay is described as follows: Anti-yeast activity assay, S cerevisiae.
Assay [21] deals with plant pathogenic fungi. As to the kind of experiment: Antifungal potency on different plant pathogenic fungi (summary over the panel). To be noted: high salt medium (medium B).
The mark [22] stands for this setting: Medium B (1/2 PDB + 1 mM CaCl2 and 50 mM KCl).

As to “Ib-AMP1: Impatiens balsamina antimicrobial protein 1, purified from I balsamina seeds; amino acid sequence SEQ ID NO 10 (QWGRRCCGWGPGRRYCVRWC)”, the “IC50 (growth inhibition) F graminearum” value in assay [1] turned out to be 3 µg/mL. Besides, the “IC50 (growth inhibition) E coli” value in assay [2] is > 800 µg/mL. The “IC50 (growth inhibition) F moniliforme” value in assay [3] was determined as 20 µg/mL. Besides, in assay [4], the “IC50 (growth inhibition) C albicans” value is 10 µg/mL. Also, in assay [4], the “effect on the growth of C. albicans (in words)” value is given as “strongly inhibitied”. The “IC50 (growth inhibition) B maydis” value in assay [5] came to 7 µg/mL. In addition, the “IC50 (growth inhibition) A longipes” value worked out at 3 µg/mL in [6] (Medium A (1/2 PDB)) and 50 µg/mL in [6] (setting [22]). For the same substance, the results for the “IC50 (growth inhibition) S tritici” value in assay [7] (Medium A (1/2 PDB)) and in assay [7] (setting [22]) were 1 µg/mL and 50 µg/mL, respectively. In addition, the “IC50 (growth inhibition) V dahliae” value in assay [8] is 1 µg/mL. Moreover, the “IC50 (growth inhibition) V albo-atrum” value is 3 µg/mL in assay [9] (Medium A (1/2 PDB)) and > 200 µg/mL in [9] (setting [22]). For the same substance, the “IC50 (growth inhibition) B megaterium” value in [10] amounted to 10 µg/mL. For the same substance, the “IC50 (growth inhibition) B cinerea” value in [11] (Medium A (1/2 PDB)) was 12 µg/mL; in assay [11] (setting [22]), > 200 µg/mL. In [12], the “IC50 (growth inhibition) C beticola” value was found to be 1.5 µg/mL. Moreover, the “IC50 (growth inhibition) F culmorum” value in assay [13] (Medium A (1/2 PDB)) was 1.5 µg/mL; in assay [13] (setting [22]) it was 50 µg/mL. Also, the “IC50 (growth inhibition) P digitatum” value in [14] (Medium A (1/2 PDB)) amounted to 3 µg/mL; in assay [14] (setting [22]), 200 µg/mL. In assay [15], the “IC50 (growth inhibition) C graminicola” value turned out to be 2 µg/mL. The “IC50 (growth inhibition) S maydis” value in assay [16] came to 5 µg/mL. The “IC50 (growth inhibition) C sphaerospermum” value in assay [17] (Medium A (1/2 PDB)) was found to be 1.5 µg/mL; in [17] (setting [22]), 50 µg/mL. Moreover, the “IC50 (growth inhibition) S reiliana” value in assay [18] is 4 µg/mL. For the same substance, the “IC50 (growth inhibition) T viride” value in [19] (Medium A (1/2 PDB)) is 6 µg/mL; in assay [19] (setting [22]), > 200 µg/mL. The “IC50 (growth inhibition) S cerevisiae” value in [20] is 20 µg/mL.

On to “Ib-AMP2: Impatiens balsamina antimicrobial protein 2, purified from I balsamina seeds; amino acid sequence SEQ ID NO 11 (QYGRRCCNWGPGRRYCKRWC)”, for which the “IC50 (growth inhibition) A longipes” value in [6] (Medium A (1/2 PDB)) is 12 µg/mL; in [6] (setting [22]), > 200 µg/mL. The “IC50 (growth inhibition) V albo-atrum” value in assay [9] (Medium A (1/2 PDB)) was 12 µg/mL; in assay [9] (setting [22]), > 200 µg/mL. For the same substance, the “IC50 (growth inhibition) B cinerea” value was 25 µg/mL in assay [11] (Medium A (1/2 PDB)) and > 200 µg/mL in [11] (setting [22]). Also, in assay [12], the “IC50 (growth inhibition) C beticola” value stood at 3 µg/mL. The “IC50 (growth inhibition) F culmorum” value in [13] (Medium A (1/2 PDB)) is 6 µg/mL; in [13] (setting [22]), > 200 µg/mL. Moreover, the “IC50 (growth inhibition) P digitatum” value was 6 µg/mL in assay [14] (Medium A (1/2 PDB)) and > 200 µg/mL in [14] (setting [22]). For the same substance, the “IC50 (growth inhibition) C sphaerospermum” value in assay [17] (Medium A (1/2 PDB)) was 6 µg/mL; in assay [17] (setting [22]) it was > 200 µg/mL. Moreover, the “IC50 (growth inhibition) T viride” value in assay [19] (Medium A (1/2 PDB)) was 12 µg/mL; in [19] (setting [22]) it was > 200 µg/mL.

As for “Ib-AMP3: Impatiens balsamina antimicrobial protein 3, purified from I balsamina seeds; amino acid sequence SEQ ID NO 12 (QYRHRCCAWGPGRKYCKRWC)”, the “IC50 (growth inhibition) A longipes” value in assay [6] (Medium A (1/2 PDB)) is 6 µg/mL; in assay [6] (setting [22]), > 200 µg/mL. Besides, the “IC50 (growth inhibition) V albo-atrum” value in assay [9] (Medium A (1/2 PDB)) is 6 µg/mL; in assay [9] (setting [22]), > 200 µg/mL. In addition, the figures for the “IC50 (growth inhibition) B cinerea” value in [11] (Medium A (1/2 PDB)) and in assay [11] (setting [22]) were 6 µg/mL and > 200 µg/mL, respectively. Moreover, the “IC50 (growth inhibition) F culmorum” value turned out to be 6 µg/mL in [13] (Medium A (1/2 PDB)) and 100 µg/mL in assay [13] (setting [22]). Moreover, the “IC50 (growth inhibition) P digitatum” value amounted to 3 µg/mL in assay [14] (Medium A (1/2 PDB)) and 100 µg/mL in assay [14] (setting [22]). Moreover, the “IC50 (growth inhibition) C sphaerospermum” value is 3 µg/mL in assay [17] (Medium A (1/2 PDB)) and 100 µg/mL in assay [17] (setting [22]). The “IC50 (growth inhibition) T viride” value in assay [19] (Medium A (1/2 PDB)) was 12 µg/mL; in assay [19] (setting [22]), > 200 µg/mL.

On to “Ib-AMP4: Impatiens balsamina antimicrobial protein 4, purified from I balsamina seeds; amino acid sequence SEQ ID NO 13 (QWGRRCCGWGPGRRYCRRWC)”, for which the “IC50 (growth inhibition) A longipes” value in [6] (Medium A (1/2 PDB)) was determined as 3 µg/mL; in [6] (setting [22]), 12 µg/mL. In addition, the “IC50 (growth inhibition) S tritici” value in assay [7] (Medium A (1/2 PDB)) came out at 1 µg/mL; in [7] (setting [22]) it was 12 µg/mL. In addition, the “antifungal activity in high salt medium (in words)” value in assay [21] was “fairly strong activity”. Further, the “IC50 (growth inhibition) V albo-atrum” value in [9] (Medium A (1/2 PDB)) turned out to be 6 µg/mL; in assay [9] (setting [22]) it was 50 µg/mL. Also, the “IC50 (growth inhibition) B cinerea” value in [11] (Medium A (1/2 PDB)) stood at 6 µg/mL; in [11] (setting [22]) it was 200 µg/mL. Further, the “IC50 (growth inhibition) F culmorum” value in [13] (Medium A (1/2 PDB)) turned out to be 1 µg/mL; in [13] (setting [22]), 6 µg/mL. In addition, the results for the “IC50 (growth inhibition) P digitatum” value in [14] (Medium A (1/2 PDB)) and in [14] (setting [22]) were 3 µg/mL and 25 µg/mL, respectively. Further, the figures for the “IC50 (growth inhibition) C sphaerospermum” value in assay [17] (Medium A (1/2 PDB)) and in assay [17] (setting [22]) were 1 µg/mL and 6 µg/mL, respectively. For the same substance, the “IC50 (growth inhibition) T viride” value in [19] (Medium A (1/2 PDB)) was found to be 6 µg/mL; in assay [19] (setting [22]) it was 150 µg/mL.
